Test: Phase I cocaine interaction study: heart rate and blood pressure
Conditions: cocaine 20 mg and 40 mg i.v., most P-values<0.05

For `COC(=O)[C@H]1[C@@H](OC(=O)c2ccccc2)C[C@@H]2CC[C@H]1N2C` [cocaine, reference compound], the “HR/SBP/DBP after cocaine infusion” value was “significant elevation”.

Reference: US8592466B2, “Methods for treating conditions caused by higher-than-normal dopaminergic activity in basal ganglia” (Neuropill, Inc., priority 2008, dated 2013)
